Source: patent US8236818B2, “Substituted imidazopyridine derivatives as melanocortin-4 receptor antagonists” (Santhera Pharmaceuticals (Schweiz) AG, priority 2007, dated 2012)

What was measured:
[1] = molecular target: T1, melanocortin-4 receptor (Homo sapiens, UniProt P32245); assay: Functional assay (cAMP fluorescence polarization, membrane based, agonistic activity); type: biochemical; settings: for Emax: 2 h, read-out: % activation functional assay
T1 construct: expressed in transfected cells; host or cells: HEK293 cells (membrane preparations)

[2] = molecular target: T1, melanocortin-4 receptor; assay: Membrane binding assay (fluorescence polarization, competition with fluorescence labeled NDP-alpha-MSH); settings: read-out: hMC-4R binding assay IC50/μM

T1 sequence (P32245 whole entry): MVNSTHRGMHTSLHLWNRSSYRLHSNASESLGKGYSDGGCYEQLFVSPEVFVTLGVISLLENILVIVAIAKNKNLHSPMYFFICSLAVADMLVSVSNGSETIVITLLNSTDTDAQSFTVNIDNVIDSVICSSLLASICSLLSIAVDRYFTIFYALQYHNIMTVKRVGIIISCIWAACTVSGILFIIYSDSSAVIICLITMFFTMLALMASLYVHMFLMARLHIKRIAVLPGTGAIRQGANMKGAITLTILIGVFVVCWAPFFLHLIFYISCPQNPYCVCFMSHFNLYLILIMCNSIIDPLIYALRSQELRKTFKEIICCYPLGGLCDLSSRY

| Emax [1] | IC50 [2] | EC50 ([1]; agonistic activity, cAMP, HEK293 membrane preparations, read-out: hMC-4R functional assay EC50/μM) | Compound |
| --- | --- | --- | --- |
| 0% | < 0.1 µM |  | COc1cccc(-c2nc3ccc(C(=O)N(CCC(C)C)CCC(C)C)cn3c2CCCN2CCCC2)c1 [Example 9] |
| 0% | 0.1 to 1 µM |  | CC(C)CCN(CCC(C)C)C(=O)c1ccc2nc(-c3ccc4c(c3)OCCO4)c(CCCN)n2c1 [Example 1] |
| 0% | < 0.1 µM |  | COc1cccc(-c2nc3ccc(C(=O)N(CCC(C)C)CCC(C)C)cn3c2CCCN2CCC(F)CC2)c1 [Example 30] |
| 0% | < 0.1 µM |  | CC(C)CCN(CCC(C)C)C(=O)c1ccc2nc(-c3ccc4c(c3)CCC(=O)N4)c(CCCN3CCCC3)n2c1 [Example 45] |
| 0% | < 0.1 µM |  | CC(C)CCN(CCC(C)C)C(=O)c1ccc2nc(-c3ccc(C#N)cc3)c(CCCN3CCCC3)n2c1 [Example 17] |
| 0% | 0.1 to 1 µM |  | COc1cccc(-c2nc3ccc(C(=O)N(CCC(C)C)CCC(C)C)cn3c2CCCN2CC[C@@H](F)C2)c1 [Example 32] |
| -15% | < 0.1 µM |  | CC(C)CCN(CCC(C)C)C(=O)c1ccc2nc(-c3ccc(OCCO)nc3)c(CCCN3CCCC3C)n2c1 (centres unmarked) [Example 104] |
| 0% | 0.1 to 1 µM |  | CC(C)CCN(CCC(C)C)C(=O)c1ccc2nc(-c3ccc(C#N)cc3)c(CN3CCC(N(C)C)CC3)n2c1 [Example 113] |
| 2% | 0.1 to 1 µM |  | CC(C)CCN(CCC(C)C)C(=O)c1ccc2nc(-c3ncco3)c(CCCN3CC[C@@H](F)C3)n2c1 [Example 72] |
| 0% | < 0.1 µM |  | CCN(CC)CCCc1c(-c2cccc(OC)c2)nc2ccc(C(=O)N(CCC(C)C)CCC(C)C)cn12 [Example 8] |
| -3% | 0.1 to 1 µM |  | CC(C)CCN(CCC(C)C)C(=O)c1ccc2nc(-c3ncco3)c(CCCN3CC(O)C3)n2c1 [Example 73] |
| -9% | < 0.1 µM |  | CC1CCCN1CCCc1c(-c2ccc(OCCO)nc2)nc2ccc(C(=O)N(CCC3CC3)CCC3CC3)cn12 (centres unmarked) [Example 112] |
| 0% | 0.1 to 1 µM |  | CC(C)CCN(CCC(C)C)C(=O)c1ccc2nc(-c3cccs3)c(CN3CCC(N)CC3)n2c1 [Example 125] |
| 0% | 0.1 to 1 µM |  | CC(C)CC1CCCN1C(=O)c1ccc2nc(-c3ccc(C#N)cc3)c(CCCN3CCCC3)n2c1 (centres unmarked) [Example 146] |
| 0% | > 1 µM |  | COc1cccc(-c2nc3ccc(C(=O)N(CCC(C)C)CCC(C)C)cn3c2CCCNCC2CC2)c1 [Example 10] |
| 0% | > 1 µM |  | Cc1ccc(-c2nc3ccc(C(=O)N(CCC(C)C)CCC(C)C)cn3c2CCCN(C)C)nc1 [Example 58] |
| 0% | 0.1 to 1 µM |  | CC(C)CCN(CCC(C)C)C(=O)c1ccc2nc(-c3ccc4c(c3)NC(=O)CO4)c(CN3CCC(N)CC3)n2c1 [Example 137] |
| 0% | < 0.1 µM |  | COc1cccc(-c2nc3ccc(C(=O)N(CCC(C)C)CCC(C)C)cn3c2CCCN2CC(O)C2)c1 [Example 37] |
| 0% | 0.1 to 1 µM |  | Cc1ccnc(-c2nc3ccc(C(=O)N(CCC(C)C)CCC(C)C)cn3c2CCCN2CCCC2)c1 [Example 40] |
| 0% | 0.1 to 1 µM |  | COc1cccc(-c2nc3ccc(C(=O)N(CCC(C)C)CCC(C)C)cn3c2CC(C)CN2CCCC2)c1 (centres unmarked) [Example 54] |
| 0% | < 0.1 µM |  | CC(C)CCN(CCC(C)C)C(=O)c1ccc2nc(-c3ccc4c(c3)OCO4)c(CCCN3CCCC3)n2c1 [Example 39] |
| 0% | 0.1 to 1 µM |  | CC(C)CCN(CCC(C)C)C(=O)c1ccc2nc(-c3cc(O)ccn3)c(CCCN(C)C)n2c1 [Example 46] |
| 0% | < 0.1 µM |  | CC(C)CCN(CCC(C)C)C(=O)c1ccc2nc(-c3ccc4c(c3)NC(=O)CO4)c(CCCN3CCCC3)n2c1 [Example 43] |
| 0% | 0.1 to 1 µM |  | COc1ccc(-c2nc3ccc(C(=O)N(CCC(C)C)CCC(C)C)cn3c2CCCN(C)C)cc1 [Example 5] |
| 0% | 0.1 to 1 µM |  | CC(C)CCN(CCC(C)C)C(=O)c1ccc2nc(-c3ccc(=O)[nH]c3)c(CCCN(C)C)n2c1 [Example 68] |
| -17% | < 0.1 µM | < 0.1 µM | COc1ccc(-c2nc3ccc(C(=O)N(CCC(C)C)CCC(C)C)cn3c2CCCN2CCCC2)cn1 [Example 82] |
